Assay results as given in patent US11897862B2 (Gilead Sciences, Inc., priority 2022, dated 2024).
Where two headings read alike, the source gives them in different places.

Assays:
Type in all cases: cell-based
[1] = tested on: IL-2 production in Jurkat cells; assay: Jurkat IL-2 functional assay (ELISA of supernatants); conditions: Homo sapiens; for maximal fold induction: Jurkat, top of the curve fit; for EC50: overnight incubation
Description: (§1) Jurkat cell line (ATCC, Clone E6-1), highly expresses IKZF2 and lends it an appropriate system to screen degradation along with a functional readout. Jurkat cells were grown to 80% confluency in TC medium (RPMI containing glutamax, 10% FBS, 1% NEAA, and 1% Pen/Strep Glutamin in tissue culture flasks.
(§2) The cells were spun down at 400 g for 5 mins and counted. 100 K cells per well were added to a 96-well plate. The compounds were introduced starting at 10 μM and dilutions were made 1:10 for each compound. 100 μL of compound was added to each well for a 12-point titration. The cells were incubated at 37° C. with 5% CO2 overnight.
The following day, supernatants were collected for a functional readout using ELISA. The supernatants were diluted 1:2 and added to appropriate Human IL-2 plates for IL-2 functional readout.
The top of the curve fit for each compound is reported as the IL-2 ‘fold increase over DMSO control.’

[2] = molecular target: T1, IKZF2 (Homo sapiens, UniProt Q96SW2+Q9UKS7); assay: Human whole blood IKZF2 degradation (flow cytometry, CD4/CD25/Foxp3+ Treg cells); set-up: endogenous in cells; conditions: 24 hrs incubation, IKZF2 MFI in CD4/CD25/Foxp3+ Treg cells, flow cytometry; for DC50: read-out: IKZF2 EC50
Procedure, shortened: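 Fresh healthy-donor human whole blood stimulated with CD3/CD28 activator and serially diluted compound for 24 hrs at 37° C. IKZF2 MFI in CD4/CD25/Foxp3+ Tregs (IKZF1 MFI in CD4+ T cells) measured by flow cytometry after RBC lysis, fixation, permeabilization. EC50 and Dmax versus DMSO wells.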
Target sequence in this assay (Q9UKS7 whole entry): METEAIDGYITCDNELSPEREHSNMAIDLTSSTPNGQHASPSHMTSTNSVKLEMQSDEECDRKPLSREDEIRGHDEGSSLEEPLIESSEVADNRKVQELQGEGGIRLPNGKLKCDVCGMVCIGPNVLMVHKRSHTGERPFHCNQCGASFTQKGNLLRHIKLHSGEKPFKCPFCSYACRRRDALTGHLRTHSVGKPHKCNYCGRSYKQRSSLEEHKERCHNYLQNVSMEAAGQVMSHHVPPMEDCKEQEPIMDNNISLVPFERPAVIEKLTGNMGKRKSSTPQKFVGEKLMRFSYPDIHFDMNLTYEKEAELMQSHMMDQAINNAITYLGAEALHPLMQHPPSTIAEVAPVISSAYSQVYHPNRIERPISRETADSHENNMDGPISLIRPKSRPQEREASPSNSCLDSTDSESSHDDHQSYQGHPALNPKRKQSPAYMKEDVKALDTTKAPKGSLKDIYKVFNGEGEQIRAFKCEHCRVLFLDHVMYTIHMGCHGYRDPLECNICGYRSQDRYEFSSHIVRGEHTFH
Target sequence in this assay (Q96SW2 whole entry): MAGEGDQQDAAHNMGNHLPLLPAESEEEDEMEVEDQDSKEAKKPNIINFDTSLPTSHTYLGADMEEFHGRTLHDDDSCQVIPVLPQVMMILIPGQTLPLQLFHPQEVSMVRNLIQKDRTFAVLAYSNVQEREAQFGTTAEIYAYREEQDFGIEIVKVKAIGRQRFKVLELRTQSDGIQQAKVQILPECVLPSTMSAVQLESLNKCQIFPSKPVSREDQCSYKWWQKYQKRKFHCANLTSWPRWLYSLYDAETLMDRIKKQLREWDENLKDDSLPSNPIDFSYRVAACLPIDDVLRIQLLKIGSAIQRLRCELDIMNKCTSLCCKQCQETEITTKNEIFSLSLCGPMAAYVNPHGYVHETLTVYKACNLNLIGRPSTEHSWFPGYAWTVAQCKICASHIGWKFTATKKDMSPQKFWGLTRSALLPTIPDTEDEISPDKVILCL
Target sequence in this assay (Q16531 whole entry partner): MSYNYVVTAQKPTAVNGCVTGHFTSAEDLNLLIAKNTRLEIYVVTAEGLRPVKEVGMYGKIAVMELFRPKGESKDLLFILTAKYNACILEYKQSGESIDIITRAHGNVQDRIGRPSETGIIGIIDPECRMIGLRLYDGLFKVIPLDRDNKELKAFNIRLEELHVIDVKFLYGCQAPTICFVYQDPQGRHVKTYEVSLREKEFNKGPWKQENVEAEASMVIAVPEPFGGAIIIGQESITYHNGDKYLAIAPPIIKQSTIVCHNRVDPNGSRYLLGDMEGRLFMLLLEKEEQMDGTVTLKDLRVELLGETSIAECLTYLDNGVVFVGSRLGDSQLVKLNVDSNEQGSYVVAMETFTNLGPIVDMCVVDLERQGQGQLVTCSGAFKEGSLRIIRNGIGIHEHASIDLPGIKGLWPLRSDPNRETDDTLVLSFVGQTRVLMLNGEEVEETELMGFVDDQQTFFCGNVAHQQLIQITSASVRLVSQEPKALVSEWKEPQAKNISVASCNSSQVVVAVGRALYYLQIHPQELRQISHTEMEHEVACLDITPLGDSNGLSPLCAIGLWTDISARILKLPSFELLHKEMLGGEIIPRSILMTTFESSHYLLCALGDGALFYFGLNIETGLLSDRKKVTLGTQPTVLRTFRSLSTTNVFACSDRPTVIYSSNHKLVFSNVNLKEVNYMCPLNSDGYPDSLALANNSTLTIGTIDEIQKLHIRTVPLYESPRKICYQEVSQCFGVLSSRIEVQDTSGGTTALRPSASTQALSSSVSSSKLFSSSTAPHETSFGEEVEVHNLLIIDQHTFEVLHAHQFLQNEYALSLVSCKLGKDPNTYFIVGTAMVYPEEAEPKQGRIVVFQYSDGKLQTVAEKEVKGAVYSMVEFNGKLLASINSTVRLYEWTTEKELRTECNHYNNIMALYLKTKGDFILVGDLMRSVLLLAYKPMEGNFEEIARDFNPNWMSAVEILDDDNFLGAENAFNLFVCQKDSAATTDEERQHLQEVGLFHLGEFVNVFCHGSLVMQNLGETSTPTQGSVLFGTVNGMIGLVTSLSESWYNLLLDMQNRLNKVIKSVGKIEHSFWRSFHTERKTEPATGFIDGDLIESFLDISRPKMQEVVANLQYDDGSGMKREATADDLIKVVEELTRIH

[3] = molecular target: T1, IKZF2; assay: Jurkat IKZF2 degradation (flow cytometry); set-up: endogenous in cells; conditions: Jurkat cells, overnight incubation; for DC50: flow cytometry, normalized to DMSO control, read-out: IKZF2 Degradation EC50; for Dmax: maximum degradation at the highest concentration tested
Description: as §1, §2
Target sequence in this assay (Q9UKS7 whole entry): as the sequence (Q9UKS7 whole entry) above
Target sequence in this assay (Q96SW2 whole entry): as the sequence (Q96SW2 whole entry) above
Target sequence in this assay (Q16531 whole entry partner): as the sequence (Q16531 whole entry partner) above
Cells were stained with appropriate surface and intracellular antibodies and acquired by flow cytometry and analysed for degradation. […]

[4] = molecular target: T1, IKZF2; assay: HEK293 HiBiT in vitro degradation of IKZF2; set-up: expressed in transfected cells; conditions: for Dmax: HEK293, HEK293 HiBiT; for DC50: 18-24 hr incubation, normalized to DMSO control, read-out: IKZF2 EC50
Procedure, shortened: (§3)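 Flp-In T-REx HEK293 stable pools carry a single integrated copy of C-terminal HiBiT-tagged IKZF1, IKZF2 or SALL4 under a tetracycline operator, induced overnight at 37 °C with doxycycline ([…] final). Cells were then treated with serially diluted compounds for 18-24 h. Nano-Glo lytic luminescence gave EC50 and Dmax.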
Target sequence in this assay (Q9UKS7 1-500 isoform Q9UKS7-2): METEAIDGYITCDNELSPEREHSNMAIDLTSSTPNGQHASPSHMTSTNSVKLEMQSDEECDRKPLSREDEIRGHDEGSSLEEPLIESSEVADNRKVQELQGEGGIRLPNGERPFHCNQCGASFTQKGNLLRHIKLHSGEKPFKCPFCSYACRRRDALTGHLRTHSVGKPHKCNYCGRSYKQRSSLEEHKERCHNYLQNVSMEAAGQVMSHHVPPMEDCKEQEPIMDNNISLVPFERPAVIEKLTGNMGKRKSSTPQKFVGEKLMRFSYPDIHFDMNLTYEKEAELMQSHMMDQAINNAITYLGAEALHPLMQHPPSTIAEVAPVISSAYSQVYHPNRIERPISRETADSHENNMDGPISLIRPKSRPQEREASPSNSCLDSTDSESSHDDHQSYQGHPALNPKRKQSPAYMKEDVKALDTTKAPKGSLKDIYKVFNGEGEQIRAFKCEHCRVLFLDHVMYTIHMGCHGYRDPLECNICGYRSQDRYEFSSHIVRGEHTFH
Target sequence in this assay (Q96SW2 whole entry): as the sequence (Q96SW2 whole entry) above
Target sequence in this assay (Q16531 whole entry partner): as the sequence (Q16531 whole entry partner) above

[5] = molecular target: T2, IKZF1 (Homo sapiens, UniProt Q13422+Q96SW2); assay: HEK293 HiBiT in vitro degradation of IKZF1; conditions: for Dmax: HEK293, HEK293 HiBiT, maximum degradation at the highest concentration tested; for DC50: HEK293 HiBiT, 18-24 hr incubation, normalized to DMSO control, read-out: IKZF1 EC50
T2 construct: expressed in transfected cells
T2 sequence (Q13422 whole entry): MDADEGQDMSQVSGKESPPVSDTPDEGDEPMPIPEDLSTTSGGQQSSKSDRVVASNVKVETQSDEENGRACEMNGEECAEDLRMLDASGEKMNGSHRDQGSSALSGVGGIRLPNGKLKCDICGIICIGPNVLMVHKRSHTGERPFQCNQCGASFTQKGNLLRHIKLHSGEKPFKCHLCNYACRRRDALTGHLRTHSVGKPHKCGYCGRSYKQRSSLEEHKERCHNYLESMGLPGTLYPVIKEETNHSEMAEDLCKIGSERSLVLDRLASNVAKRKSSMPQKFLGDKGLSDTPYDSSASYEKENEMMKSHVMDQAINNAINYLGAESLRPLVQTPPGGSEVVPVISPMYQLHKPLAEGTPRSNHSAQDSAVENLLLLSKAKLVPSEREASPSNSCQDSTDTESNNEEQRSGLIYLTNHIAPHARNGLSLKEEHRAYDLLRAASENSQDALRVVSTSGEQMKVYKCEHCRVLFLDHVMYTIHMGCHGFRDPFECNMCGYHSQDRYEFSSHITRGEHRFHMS
T2 sequence (Q96SW2 whole entry): as the sequence (Q96SW2 whole entry) above
T2 sequence (Q16531 whole entry partner): as the sequence (Q16531 whole entry partner) above
Procedure, shortened: as §3

[6] = molecular target: T1, IKZF2; assay: HEK293 IKZF2 degradation kinetics (HiBiT, timepoints 1-24 h); set-up: expressed in transfected cells; conditions: HEK293, IKZF2; timepoints 1, 2, 3, 4.5 and 24 hour; read-out: Maximum degradation rate Kinact (converted)
Description: The assay technology and principles for evaluating IKZF2 degradation kinetics in HEK293 cells was identical to the HEK293 degradation assay as described above. Additional details are briefly described below.
On Day 1, Cells were grown and induced the same as described above. On Days 2 and 3, compounds for testing were dispensed via ECHO and cells were lifted and plated into compound-spotted assay plates as above. Plates were returned to the 37° C. incubator until addition of Nano-Glo lytic reagent at 1, 2, 3, 4.5, and 24 hour timepoints. At these timepoints, plates were read on Envision reader as above.
All raw data was normalized to DMSO control (final concentration: 0.5%) wells as POC and plotted out as a function of time to generate the degradation rate constant (K) value. The maximum degradation rate (Kinact) was determined by plotting the K value as a function of concentration for each compound tested. Kinact values are shown in Table 25 and the degradation rate plots as well as timecourse of degradation are shown for select compounds in FIG. 1A, FIG. 1B, FIG. 2A and FIG. 2B.
Target sequence in this assay (Q9UKS7 1-500 isoform Q9UKS7-2): as the sequence (Q9UKS7 1-500 isoform Q9UKS7-2) above
Target sequence in this assay (Q96SW2 whole entry): as the sequence (Q96SW2 whole entry) above
Target sequence in this assay (Q16531 whole entry partner): as the sequence (Q16531 whole entry partner) above

[7] = ELISA of supernatants, read-out: IL-2 Production Fold increase over DMSO control
[8] = read-out: increase in IL-2 production relative to DMSO control
[9] = maximum degradation at the highest concentration tested

EC50 ([1]; ELISA of supernatants)	Dmax [2]	DC50 [2]	DC50 [3]	Dmax [3]	Dmax [4, 9]	DC50 ([4]; HEK293 HiBiT)	Dmax [5]	DC50 [5]	IKZF2 Dmax [2]	IKZF2 Dmax ([4]; HEK293 HiBiT, maximum degradation at the highest concentration tested)	kinact [6]	SMILES	maximal fold induction [1, 7]	maximal fold induction [1, 8]
0.2 nM	93%	1 nM	0.05 nM	97%	97%	1 nM	68%	28 nM				O=C1CCC(N2Cc3c(ccc(C[C@H]4CCCC[C@@H]4NC4CCC(F)(F)CC4)c3F)C2=O)C(=O)N1 (stereo partly drawn) [Example 84, 3-(5-(((1R,2S)-2-((4,4-difluorocyclohexyl)amino)cyclohexyl)methyl)-4-fluoro-1-oxoisoindolin-2-yl)piperidine-2,6-dione]	2.6	≥ 1.9
2.3 nM	90%	7 nM	2 nM	88%	96%	10 nM		> 10000 nM				O=C1CCC(N2Cc3c(ccc(C[C@H]4OCCC[C@@H]4NC4CCC(F)(F)CC4)c3F)C2=O)C(=O)N1 (stereo partly drawn) [Example 94, 3-(5-(((2R,3S)-3-((4,4-difluorocyclohexyl)amino)tetrahydro-2H-pyran-2-yl)methyl)-4-fluoro-1-oxoisoindolin-2-yl)piperidine-2,6-dione]	2.1	≥ 1.9
8 nM		4 nM	0.8 nM	93%		2 nM	34%	626 nM	97%	95%	0.000131 s⁻¹	CC(N[C@H]1CCCC[C@@H]1Cc1ccc2c(c1)CN(C1CCC(=O)NC1=O)C2=O)C1CCC1 (stereo partly drawn) [Example 218]	2.2	≥ 1.9
7.8 nM	97%			94%	98%						0.000144 s⁻¹	O=C1CCC(N2Cc3cc(O[C@H]4CCCC[C@@H]4NC4CCC(F)(F)CC4)ccc3C2=O)C(=O)N1 (stereo partly drawn) [Example B-4]	1.8	
